From US20100255117A1, “METHODS AND COMPOSITIONS FOR THE TREATMENT OF CANCER” (The Johns Hopkins University, priority 2007, published 2010)

How the values were obtained:
A549 cells [1] = assay: A549 subcutaneous tumor xenograft, intratumoral siRNA with or without carboplatin/radiation; assay type: in vivo, athymic nude mice
Description: Tumor Xenografts and siRNA Treatment: We injected A549 cells (5×10^6) and H460 cells (2×10^6) subcutaneously into the hind leg of male athymic nude mice and measured the tumor dimensions by caliper once per week. The tumor volumes were calculated using the following formula: [length (mm)×width (mm)×width (mm)×0.52]. For in vivo delivery of siRNA into tumors, siRNA duplexes diluted in PBS were injected into the tumors using insulin syringes at a concentration of 10 μg of siRNA/50 mm^3 of tumor volume. Intraperitoneal injections of carboplatin were given at a dose of 40 mg/kg body weight. Both siRNA and carboplatin were administered twice weekly for 4 weeks. Upon termination, tumors were harvested and weighted. For radiation exposure, mice with subcutaneous tumors were exposed to high dose rate radiation (2 dose of 3Gy each) using a Gamma cell 40 ^137Cs irradiator (Atomic Energy of Canada, Ltd).
Statistical Analysis—Statistical comparisons were performed by Student's t-tests or Wilcoxon rank-sum test. A value of p<0.05 was considered statistically significant. Tumor weights and changes in tumor volume were summarized using descriptive statistics. Differences in tumor measures between treatment groups were examined using linear regression models with generalized estimating equations (GEE). The distributions of both tumor measurements were skewed, so log transformations were used.

A549-C8-luc cells = assay: Orthotopic A549-C8-luc lung tumor model, inhaled siRNA with or without carboplatin; assay type: in vivo, SCID-Beige mice; details: carboplatin 30 mg/kg i.p. twice/week, 4 weeks
Description: Experimental Lung Metastasis: In experimental metastasis experiments, 2×10^6 A549-C8-luc cells were injected into SCID-Beige mice (Charles River, Mass.) intravenously. For delivery of siRNA into lung tumors, 100 μg of siRNA duplex diluted in PBS was aerosolized using a nebulizer. Mice were given three doses of siRNA (100 μg/dose) every week, for 4 weeks, using a nebulizer. Intraperitoneal injections of carboplatin were given at a dose of 30 mg/kg body weight twice/week. All experimental animal protocols were performed in accordance with guidelines approved by the animal care committee at the Johns Hopkins University Bloomberg School of Public Health.
In Vivo Imaging: For luminescent imaging, animals inoculated with A549-C8-luc cells, which express a luciferase reporter gene, were anesthetized and injected intraperitoneally with 250 ul of luminescent substrate (15 mg/ml stock) D-Luciferin Firefly (Xenogen Cat# XR-1001). The animals were then imaged and analyzed by using the Xenogen IVIS Optical Imaging Device in the Johns Hopkins Oncology Center.

ROS = assay: Measurement of ROS levels (c-H2DCFDA, flow cytometry); assay type: cell-based, human; details: NAC for 30 mins
Description: Measurement of ROS levels: Cells were incubated with 10 μM c-H2DCFDA (molecular probes, Invitrogen, CA) for 30 mins at 37° C. to assess the ROS mediated oxidation to the fluorescent compound c-H2DCF. Fluorescence of oxidized c-H2DCF was measured at an excitation wavelength of 480 nm and an emission wavelength of 525 nm using a FAC Scan flow cytometer (Becton Dickinson).

A549 cells [2] = assay: Clonogenic survival after ionizing radiation, A549; assay type: cell-based, human; details: A549-NRF2 shRNA cells
Description: (§1) Clonogenic assays: Exponentially growing cells were counted, diluted and seeded in triplicate at 1000 cells per culture dish (100 mm). Cells were incubated for 24 h in a humidified CO2 incubator at 37° C., exposed to high dose rate (0.68Gy/min) radiation using a Gamma cell 40 ^137Cs irradiator (Atomic Energy of Canada, Ltd). To assess clonogenic survival following radiation exposure, cell cultures were incubated in complete growth medium at 37° C. for 14 days and then stained with 50% methanol-crystal violet solution. Only colonies with more than 50 cells were counted, and the surviving fraction was calculated and compared to the control.

H460 cells = assay: Clonogenic survival after ionizing radiation, H460; assay type: cell-based, human; details: H460-NRF2 shRNA cells
Description: as §1

Structure (SMILES): N.N.O=C([O-])C1(C(=O)[O-])CCC1.[Pt+2] [carboplatin]
- ratio of differences in change in tumor volume, siRNA+carboplatin vs siRNA (A549 cells [1]; experiment 1): 0.45
- ratio of tumor weights, siRNA vs siRNA+carboplatin treated tumors (A549 cells [1]; experiment 1, carboplatin 40 mg/kg i.p. twice weekly): 2.13
- ratio of differences in change in tumor volume, siRNA+carboplatin vs siRNA+radiation (A549 cells [1]; experiment 1, not significant): 0.77
- ratio of tumor weights, siRNA+carboplatin vs siRNA treated tumors (A549 cells [1]; second experiment): 0.55
- ratio of lung weights, siRNA vs siRNA+carboplatin treated tumors (A549-C8-luc cells): 1.73

Structure (SMILES): CC(=O)N[C@@H](CS)C(=O)O [NAC, N-acetyl cysteine]
- reduction of ROS production / mean fluorescent intensity (ROS; A549-NRF2shRNA cells): 85%
- reduction of ROS production / mean fluorescent intensity (ROS; H460-NRF2shRNA cells): 75%
- cell survival after radiation with NAC pretreatment (A549 cells [2]): significantly increased cell survival
- cell survival after radiation with NAC pretreatment (H460 cells): significantly increased cell survival
